Experiment [1] deals with mitotic marker phospho-histone H3 at serine 10 (pH3 (Ser10)) in transformed BJ cells. As to the kind of experiment: Immunoblot analysis of mitotic marker pH3 (Ser10), derivatives of Compound 1. The experiment is classed as cell-based. The settings on record: Homo sapiens, band intensities pH3(Ser10)/β-actin vs DMSO control, 24 h. Here is the method:
(§1) FIG. 4 compares the ability of Compound 1 (a131), and various derivatives thereof (referred to using their code numbers for brevity; the designated chemical compound for each code number is provided in the chemical examples section below), to inhibit autophagy and/or mitosis. BJ transformed cells were treated with 5 μM of various Compounds as shown, for 24 h. Cells were harvested and total lysates were analysed by detecting the mitotic marker phospho-histone H3 at serine 10 (pH3 (Ser10)) and the autophagosome marker LC3. Antibodies raised against β-actin were used as an internal loading control.
(§2) The ability of Compound 1 to inhibit lysosome function was examined using immunoblotting. HeLa cervical cancer cells were cultured in Dulbecco's modified Eagle's medium (DMEM) supplemented with 10% Fetal Bovine Serum (FBS, Thermo Scientific). The HeLa cells were treated with different concentrations of Compound 1 (0.625, 1.25, 2.5, 5 and 10 μM, dimethyl sulfoxide (DMSO, Kanto Kagaku)), chloroquine (CQ) (1.25, 2.5, 10, 50 and 100 μM, DMSO) or DMSO for 6 h. Then, the treated cells were harvested and lysed in 1% triton lysis buffer [25 mM Tris HCl (pH8.0), 150 mM NaCl, 1% triton-X100, 1 mM dithiothreitol (DTT), protease inhibitor mix (Complete Mini, Roche) and phosphatase inhibitor (PhosphoStop, Roche)]. The proteins in total lysates were boiled with sample buffer (60 mM Tris-HCl (pH 6.8), 25% glycerol, 2% SDS, 14.4 mM 2-mercaptoethanol, 0.1% bromophenol blue) and resolved by 14% tris-glycine sodium dodecyl sulfate polyacrylamide gel electrophoresis (SDS-PAGE) and subjected to immunoblot analysis.
(§3) Defects in lysosome function and inhibition of autophagy can be measured by accumulation of LC3-phosphatidylethanolamine conjugated non-soluble form (LC3-II), which are converted from soluble LC3-I. Thus, antibodies raised against LC3 (Cell Signaling, Cat#4108) were used to determine lysosomal function and integrity. Antibodies raised against phosphorylated histone H3 at serine 10 residue (pH3) (Cell signaling, Cat#3377) were used as the marker for mitotic dysfunction and arrest. Antibodies raised against β-actin (Millipore, Cat#MAB1501) were used as an internal loading control. The inhibitory ability of Compound 1 was also quantitatively compared to CQ.
(§4) Derivatives of Compound 1 were tested to see if they had similar dual activity, or presented only one of the activities of Compound 1. The protocol for immunoblot analysis described in Biology Example 1 was applied to the additional indicated compounds.
(§5) Activities of compounds were determined by two independent experiments. First, Compounds were classified according to the intensity of increase in each of the mitotic marker phospho-histone H3 at serine 10 (pH3 (Ser 10)) and the autophagosome marker LC3, respectively, at 1.25 μM, when compared with 1.25 μM Compound 1 (a131).
(§6) Compounds classified “++” on either “mitosis” or “inhibits lysosome” show similar increase in each of the mitotic marker phospho-histone H3 at serine 10 (pH3 (Ser10)) and the autophagosome marker LC3, respectively, at 2.5 μM, when compared with 1.25 μM Compound 1 (a131); and compounds classified “+” on either “mitosis” or “inhibits lysosome” show similar increase in each of the mitotic marker phospho-histone H3 at serine 10 (pH3 (Ser10)) and the autophagosome marker LC3, respectively, at a concentration range of 5-10 μM, when compared with 1.25 μM Compound 1 (a131).
Compounds classified “+/−” on either “mitosis” or “inhibits lysosome” show less increase in each of the mitotic marker phospho-histone H3 at serine 10 (pH3 (Ser10)) and the autophagosome marker LC3, respectively, at a concentration range of 5-10 μM, when compared with 1.25 μM Compound 1 (a131).
Next, the ability of Compound 1 and its derivatives to induce mitotic arrest in transformed BJ cells was quantified as the fold induction of band intensities [pH3(Ser10)/β-actin] in comparison with DMSO control. […]
A general note: In western blotting, separated proteins are transferred to a membrane and probed.

The subject of experiment [2] is autophagosome marker LC3 (LC3 II/LC3 I) in transformed BJ cells. The experiment in a line: Immunoblot analysis of autophagosome marker LC3 (lysosome function), derivatives of Compound 1. The experiment is classed as cell-based. The settings on record: Homo sapiens, band intensities LC3 II/LC3 I vs DMSO control, 24 h. Here is the method:
as §1, §2, §3, §4, §5, §6
Compounds classified “+/−” on either “mitosis” or “inhibits lysosome” show less increase in each of the mitotic marker phospho-histone H3 at serine 10 (pH3 (Ser10)) and the autophagosome marker LC3, respectively, at a concentration range of 5-10 μM, when compared with 1.25 μM Compound 1 (a131). […]

Experiment [3] deals with pH3 (Ser10) and LC3 in BJ transformed cells. As to the kind of experiment: Immunoblot classification of compounds by pH3 and LC3 (FIG. 4). The experiment is classed as cell-based, human. The settings on record: 5 μM, 24 h. The protocol: as §1, §4

Molecules are shown by their SMILES.

As usually defined, the fold induction is the signal under treatment as a multiple of the control signal. `COc1cccc2c(/C(C#N)=C/c3cccc4cnccc34)c[nH]c12` [Compound 6, (Z)-3-(isoquinolin-5-yl)-2-(7-methoxy-1H-indol-3-yl)acrylonitrile]: the fold induction at 5 µM in experiment [1] amounted to 3.9; in experiment [2], 2.7. Further, the “Inhibition of lysosome function and/or mitosis (FIG. 4)” value (shortened to “Inhibition”) in experiment [3] was “exhibit the dual properties of inhibiting both lysosome function and mitosis”.

For `N#C/C(=C\c1cccc2cnccc12)c1c[nH]c2ccc(OCCCN3CCCC3)cc12` [Compound 13, (Z)-2-(5-(3-(pyrrolidin-1-yl)propoxy)-1H-indol-3-yl)-3-(isoquinolin-5-yl)acrylonitrile], the figures for the fold induction at 5 µM in experiment [1] and in experiment [2] were 0.9 and 6, respectively. For the same compound, in experiment [3], the “Inhibition” value is recorded as “inhibit lysosome function only”.

Turning to `COCCOc1ccc2[nH]cc(/C(C#N)=C/c3cccc4cnccc34)c2c1` [Compound 12, (Z)-2-(5-(2-methoxyethoxy)-1H-indol-3-yl)-3-(isoquinolin-5-yl)acrylonitrile], the fold induction at 5 µM in experiment [1] was 1.6; in experiment [2], 3.2. The “Inhibition” value in experiment [3] is “inhibit lysosome function only”.

Take `N#C/C(=C\c1cccc2cnccc12)c1cn(C(=O)CCCC[C@@H]2SC[C@@H]3NC(=O)N[C@@H]32)c2ccccc12` [Compound 18, (Z)-3-(isoquinolin-5-yl)-2-(1-(5-((3aS,4S,6aR)-2-oxohexahydro-1H-thieno[3,4-d]imidazol-4-yl)pentanoyl)-1H-indol-3-yl)acrylonitrile]: the fold induction at 5 µM in experiment [1] worked out at 2.2; in experiment [2], 1.7. Further, in experiment [3], the “Inhibition” value is “inhibit mitosis only”.

Consider `COc1ccc2c(/C(C#N)=C/c3cccc4cnccc34)c[nH]c2c1` [Compound 9, (Z)-3-(isoquinolin-5-yl)-2-(6-methoxy-1H-indol-3-yl)acrylonitrile], for which the values for the fold induction at 5 µM in experiment [1] and in experiment [2] were 4.3 and 2.6, respectively. Besides, in experiment [3], the “Inhibition” value is “exhibit the dual properties of inhibiting both lysosome function and mitosis”.

`CC(C)(C)OC(=O)N1CCC(C(=O)n2cc(/C(C#N)=C/c3cccc4cnccc34)c3ccccc32)CC1` [Compound 19, (Z)-tert-butyl 4-(3-(1-cyano-2-(isoquinolin-5-yl)vinyl)-1H-indole-1-carbonyl)piperidine-1-carboxylate]: the fold induction at 5 µM in experiment [1] came out at 16.2; in experiment [2], 5.2. In experiment [3], the “Inhibition” value is “exhibit the dual properties of inhibiting both lysosome function and mitosis”.

Regarding `O=C(Nc1cccc2cnccc12)c1c[nH]c2ccccc12` [Compound 29, N-(isoquinolin-5-yl)-1H-indole-3-carboxamide], the fold induction at 5 µM was 1.4 in experiment [1] and 0.4 in experiment [2].

Turning to `C(=C\c1c[nH]c2ncccc12)/c1cccc2cnccc12` [Compound 27, 5-((E)-2-(1H-pyrrolo[2,3-b]pyridin-3-yl)vinyl)isoquinoline], the results for the fold induction at 5 µM in experiment [1] and in experiment [2] were 1.2 and 2, respectively. Also, the “Inhibition” value in experiment [3] was “inhibit lysosome function only”.

Take `N#C/C(=C\c1cccc2cnccc12)c1c[nH]c2ccc(OCCC3OCCO3)cc12` [Compound 11, (Z)-2-(5-(2-(1,3-dioxolan-2-yl)ethoxy)-1H-indol-3-yl)-3-(isoquinolin-5-yl)acrylonitrile]: the figures for the fold induction at 5 µM in experiment [1] and in experiment [2] were 1 and 0.7, respectively.

Turning to `N#C/C(=C\c1cccc2cnccc12)c1c[nH]c2c(CN3CCCC3)cccc12` [Compound 33, (Z)-3-(isoquinolin-5-yl)-2-(7-((pyrrolidin-1-yl)methyl)-1H-indol-3-yl)acrylonitrile], the fold induction at 5 µM is 0.8 in experiment [1] and 3.7 in experiment [2]. Moreover, the “Inhibition” value in experiment [3] is “inhibit lysosome function only”.

In the case of `N#C/C(=C\c1cccc2cnccc12)c1n[nH]c2ccccc12` [Compound 34, (Z)-2-(1H-indazol-3-yl)-3-(isoquinolin-5-yl)acrylonitrile], the fold induction at 5 µM in experiment [1] was found to be 1.4; in experiment [2], 2. Also, in experiment [3], the “Inhibition” value is given as “inhibit lysosome function only”.

Turning to `N#C/C(=C\c1cncc2cnccc12)c1c[nH]c2ccccc12` [Compound 4, (Z)-2-(1H-indol-3-yl)-3-(2,7-naphthyridin-4-yl)acrylonitrile], the fold induction at 5 µM is 1.4 in experiment [1] and 1 in experiment [2].

Consider `N#C/C(=C\c1cccc2cnccc12)c1c[nH]c2ccc(Cl)cc12` [Compound 7, (Z)-2-(5-chloro-1H-indol-3-yl)-3-(isoquinolin-5-yl)acrylonitrile], for which the fold induction at 5 µM in experiment [1] was 1.4; in experiment [2], 2. In experiment [3], the “Inhibition” value is “inhibit lysosome function only”.

For `C(=C\c1c[nH]c2ccccc12)/c1cncc2cnccc12` [Compound 26, 4-((E)-2-(1H-indol-3-yl)vinyl)-2,7-naphthyridine], the fold induction at 5 µM in experiment [1] turned out to be 1.2; in experiment [2], 2.7. Moreover, in experiment [3], the “Inhibition” value is recorded as “inhibit lysosome function only”.

Regarding `N#C/C(=C\c1cccc2cnccc12)c1c[nH]c2ccc(NC(=O)CCCC[C@@H]3SC[C@@H]4NC(=O)N[C@@H]43)cc12` [Compound 15, N-(3-((Z)-1-cyano-2-(isoquinolin-5-yl)vinyl)-1H-indol-5-yl)-5-((3aS,4S,6aR)-2-oxohexahydro-1H-thieno[3,4-d]imidazol-4-yl)pentanamide], the fold induction at 5 µM in experiment [1] stood at 1.7; in experiment [2], 1.1.

With `N#C/C(=C\c1cccc2cnccc12)c1c[nH]c2cc(Br)ccc12` [Compound 10, (Z)-2-(6-bromo-1H-indol-3-yl)-3-(isoquinolin-5-yl)acrylonitrile], the fold induction at 5 µM in experiment [1] is 1.6; in experiment [2], 0.7.

For the compound `N#C/C(=C\c1cccc2cnccc12)c1c[nH]c2c(Br)cccc12` [Compound 5, (Z)-2-(7-bromo-1H-indol-3-yl)-3-(isoquinolin-5-yl)acrylonitrile], the fold induction at 5 µM in experiment [1] was 1.4; in experiment [2] it was 2.2.

Regarding `CC(=O)Nc1ccc2[nH]cc(/C(C#N)=C/c3cccc4cnccc34)c2c1` [Compound 14, N-(3-((Z)-1-cyano-2-(isoquinolin-5-yl)vinyl)-1H-indol-5-yl)acetamide], the fold induction at 5 µM came out at 1.2 in experiment [1] and 0.5 in experiment [2].

For `CC(=O)NCCC(=O)n1cc(/C(C#N)=C/c2cccc3cnccc23)c2ccccc21` [Compound 17, (Z)—N-(3-(3-(1-cyano-2-(isoquinolin-5-yl)vinyl)-1H-indol-1-yl)-3-oxopropyl)acetamide], the values for the fold induction at 5 µM in experiment [1] and in experiment [2] were 2.8 and 2.3, respectively.

Take `C(=C\c1c[nH]c2ccccc12)/c1cccc2cnccc12` [Compound 25, 5-((E)-2-(1H-indol-3-yl)vinyl)isoquinoline]: the fold induction at 5 µM came to 1.3 in experiment [1] and 5.4 in experiment [2].

The values are drawn from patent US10308631B2, “Selective anti-cancer compounds” (NATIONAL UNIVERSITY OF SINGAPORE, priority 2015, dated 2019).
